# Reference: PubChem BioAssay (NCI)
#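 Cells were grown in 96-well plates and exposed to each compound for 48 hours at five concentrations; endpoints were interpolated linearly between bracketing concentrations, or set to the highest concentration if not reached. The concentration for 50% growth inhibition is given as GI50. TGI denotes the concentration required for complete inhibition of growth.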
# Columns and labels:
# Assay in all cases: NCI-60 cell line screen, 48 h
# [1] = test system: HCT-15 colon
# [2] = test system: HCT-116 colon
# [3] = test system: T-47D breast
# [4] = test system: SK-MEL-2 melanoma
# [5] = test system: NCI-H23 lung
# [6] = test system: MALME-3M melanoma
# [7] = test system: SF-268 CNS
# [8] = test system: OVCAR-3 ovarian
# [9] = test system: PC-3 prostate
# [10] = test system: IGROV1 ovarian
# [11] = test system: ACHN renal
# [12] = test system: 786-0 renal
# [13] = test system: SK-OV-3 ovarian
# [14] = test system: HOP-92 NSCLC
# [15] = test system: LOX IMVI melanoma
# [16] = test system: EKVX NSCLC
# [17] = test system: SW-620 colon
# [18] = test system: SF-539 CNS
# [19] = test system: HL-60(TB) leukemia
# [20] = test system: NCI-H226 lung
# [21] = test system: HCC-2998 colon
# [22] = test system: TK-10 renal
# [23] = test system: CCRF-CEM leukemia
# [24] = test system: UACC-257 melanoma
# [25] = test system: A549 NSCLC
# [26] = test system: A498 renal
# [27] = test system: MDA-MB-435
# [28] = test system: HT29 colon
# [29] = test system: SF-295 CNS
# [30] = test system: SK-MEL-5 melanoma
# [31] = test system: U251 CNS
# [32] = test system: COLO 205 colon
# [33] = test system: HOP-62 NSCLC
# [34] = test system: DU-145 prostate
# [35] = test system: MDA-MB-468 breast
# [36] = test system: SK-MEL-28 melanoma
# [37] = test system: BT-549 breast
# [38] = test system: NCI-H460 lung
# [39] = test system: NCI/ADR-RES ovarian
# [40] = test system: MCF7 breast
# [41] = test system: OVCAR-8 ovarian
# [42] = test system: RPMI-8226 leukemia
# [43] = test system: KM12 colon
# [44] = test system: HS 578T breast
# [45] = test system: CAKI-1 renal
# [46] = test system: UO-31 renal
# [47] = test system: NCI-H522 lung
# [48] = test system: OVCAR-5 ovarian
# [49] = test system: SNB-75 CNS
# [50] = test system: K-562 leukemia
# [51] = test system: M14 melanoma
structure (smiles),measurement,setting,value
CN(C)c1nc(NCCNS(=O)(=O)c2ccc(C3=Nc4c(N)nc(N)nc4NC(c4ccc(F)cc4)C3)cc2)nc(Nc2ccc(F)cc2)n1 (configuration not stated),GI50,[1],> 100 µM
same,TGI,[1],> 100 µM
same,GI50,[2],4.54 µM
same,TGI,[2],> 100 µM
same,GI50,[3],4.86 µM
same,TGI,[3],> 100 µM
same,GI50,[4],8.17 µM
same,TGI,[4],29 µM
same,GI50,[5],54.1 µM
same,TGI,[5],> 100 µM
same,GI50,[6],6.28 µM
same,TGI,[6],> 100 µM
same,GI50,[7],4.83 µM
same,TGI,[7],> 100 µM
same,GI50,[8],8.09 µM
same,TGI,[8],> 100 µM
same,GI50,[9],5.04 µM
same,TGI,[9],> 100 µM
same,GI50,[10],5.01 µM
same,TGI,[10],> 100 µM
same,GI50,[11],> 100 µM
same,TGI,[11],> 100 µM
same,GI50,[12],4.77 µM
same,TGI,[12],> 100 µM
same,GI50,[13],> 100 µM
same,TGI,[13],> 100 µM
same,GI50,[14],3.09 µM
same,TGI,[14],23.3 µM
same,GI50,[15],2.62 µM
same,TGI,[15],9.13 µM
same,GI50,[16],5.17 µM
same,TGI,[16],> 100 µM
same,GI50,[17],8.27 µM
same,TGI,[17],> 100 µM
same,GI50,[18],3.89 µM
same,TGI,[18],> 100 µM
same,GI50,[19],3.12 µM
same,TGI,[19],> 100 µM
same,GI50,[20],> 100 µM
same,TGI,[20],> 100 µM
same,GI50,[21],4.22 µM
same,TGI,[21],> 100 µM
same,GI50,[22],> 100 µM
same,TGI,[22],> 100 µM
same,GI50,[23],3.99 µM
same,TGI,[23],> 100 µM
same,GI50,[24],11.4 µM
same,TGI,[24],> 100 µM
same,GI50,[25],> 100 µM
same,TGI,[25],> 100 µM
same,GI50,[26],22.1 µM
same,TGI,[26],> 100 µM
same,GI50,[27],5.93 µM
same,TGI,[27],> 100 µM
same,GI50,[28],3.88 µM
same,TGI,[28],> 100 µM
same,GI50,[29],6.71 µM
same,TGI,[29],> 100 µM
same,GI50,[30],3.36 µM
same,TGI,[30],14.9 µM
same,GI50,[31],6.35 µM
same,TGI,[31],> 100 µM
same,GI50,[32],11.8 µM
same,TGI,[32],> 100 µM
same,GI50,[33],96 µM
same,TGI,[33],> 100 µM
same,GI50,[34],52 µM
same,TGI,[34],> 100 µM
same,GI50,[35],2.15 µM
same,TGI,[35],6.24 µM
same,GI50,[36],15.7 µM
same,TGI,[36],> 100 µM
same,GI50,[37],3.26 µM
same,TGI,[37],18.2 µM
same,GI50,[38],4.74 µM
same,TGI,[38],> 100 µM
same,GI50,[39],> 100 µM
same,TGI,[39],> 100 µM
same,GI50,[40],3.16 µM
same,TGI,[40],43.7 µM
same,GI50,[41],12 µM
same,TGI,[41],> 100 µM
same,GI50,[42],5.25 µM
same,TGI,[42],> 100 µM
same,GI50,[43],4.69 µM
same,TGI,[43],> 100 µM
same,GI50,[44],5.7 µM
same,TGI,[44],> 100 µM
same,GI50,[45],6.5 µM
same,TGI,[45],> 100 µM
same,GI50,[46],> 100 µM
same,TGI,[46],> 100 µM
same,GI50,[47],34.8 µM
same,TGI,[47],> 100 µM
same,GI50,[48],> 100 µM
same,TGI,[48],> 100 µM
same,GI50,[49],2.53 µM
same,TGI,[49],74 µM
same,GI50,[50],2.8 µM
same,TGI,[50],> 100 µM
same,GI50,[51],3.84 µM
same,TGI,[51],25.3 µM
